Data published in ChEMBL document CHEMBL4818987, “Recent advances of podophyllotoxin/epipodophyllotoxin hybrids in anticancer activity, mode of action, and structure-activity relationship: An update (2010-2020)” (Eur J Med Chem, 2020).

Tests used:
[1] = test system: K562/VCR; assay: Cytotoxicity against human K562/VCR cells incubated for 72 hrs by CCK8 assay; assay type: functional, cell-based
[2] = test system: K562; assay: Cytotoxicity against human K562 cells incubated for 72 hrs by CCK8 assay; assay type: functional, cell-based; conditions: K562, 72 h
[3] = test system: Calu-1; assay: Antiproliferative activity against human Calu-1 cells incubated for 24 hrs by MTT assay; assay type: functional, cell-based; conditions: Calu-1, 24 h
[4] = Selectivity ratio of IC50 for African green monkey Vero cells to IC50 for human Calu-1 cells; assay type: toxicity; conditions: Vero cells / Calu-1 cells, read-out: Ratio IC50
[5] = Selectivity ratio of IC50 for African green monkey Vero cells to IC50 for human HeLa cells; assay type: toxicity; conditions: read-out: Ratio IC50
[6] = test system: L02; assay: Cytotoxicity against human L02 cells; assay type: cell-based
[7] = Selectivity ratio of IC50 for human L02 cells to IC50 for human HeLa cells; assay type: toxicity; conditions: read-out: Ratio IC50
[8] = test system: A549; assay: Antiproliferative activity against human A549 cells incubated for 24 hrs by MTT assay; assay type: functional, cell-based; conditions: A549, 24 h
[9] = test system: Vero; assay: Cytotoxicity against African green monkey Vero cells; assay type: cell-based; conditions: Chlorocebus sabaeus
[10] = Selectivity ratio of IC50 for human L02 cells to IC50 for human Calu-1 cells; assay type: toxicity; conditions: L02 cells / Calu-1 cells, read-out: Ratio IC50
[11] = test system: HeLa; assay: Antiproliferative activity against human HeLa cells incubated for 24 hrs by MTT assay; assay type: functional, cell-based
[12] = Selectivity ratio of IC50 for human L02 cells to IC50 for human A549 cells; assay type: toxicity; conditions: read-out: Ratio IC50
[13] = Selectivity ratio of IC50 for African green monkey Vero cells to IC50 for human A549 cells; assay type: toxicity; conditions: read-out: Ratio IC50
[14] = test system: SW480; assay: Antiproliferative activity against human SW480 cells incubated for 48 hrs by MTT assay; assay type: functional, cell-based; conditions: SW480, 48 h
[15] = test system: MCF7; assay: Potency index, ratio of cisplatin IC50 to test compound IC50 for antiproliferative activity against human MCF7 cells; assay type: functional
[16] = test system: A549; assay: Antiproliferative activity against human A549 cells incubated for 48 hrs by MTT assay; assay type: functional, cell-based; conditions: A549, 48 h
[17] = test system: MCF7; assay: Antiproliferative activity against human MCF7 cells incubated for 48 hrs by MTT assay; assay type: functional, cell-based; conditions: MCF7, 48 h
[18] = test system: SMMC-7721; assay: Antiproliferative activity against human SMMC-7721 cells incubated for 48 hrs by MTT assay; assay type: functional, cell-based; conditions: SMMC-7721, 48 h
[19] = test system: SW480; assay: Potency index, ratio of cisplatin IC50 to test compound IC50 for antiproliferative activity against human SW480 cells; assay type: functional
[20] = test system: HL-60; assay: Antiproliferative activity against human HL-60 cells incubated for 48 hrs by MTT assay; assay type: functional, cell-based; conditions: HL-60, 48 h
[21] = test system: SMMC-7721; assay: Potency index, ratio of cisplatin IC50 to test compound IC50 for antiproliferative activity against human SMMC7721 cells; assay type: functional
[22] = test system: A549; assay: Potency index, ratio of cisplatin IC50 to test compound IC50 for antiproliferative activity against human A549 cells; assay type: functional
[23] = test system: HepG2; assay: Antiproliferative activity against human HepG2 cells incubated for 72 hrs by MTT assay; assay type: functional, cell-based; conditions: HepG2, 72 h
[24] = test system: SK-OV-3; assay: Antiproliferative activity against human SK-OV-3 cells incubated for 72 hrs by MTT assay; assay type: functional, cell-based; conditions: SK-OV-3, 72 h
[25] = test system: B16-F10; assay: Antiproliferative activity against mouse B16/F10 cells incubated for 72 hrs by MTT assay; assay type: functional, cell-based; conditions: B16-F10, 72 h
[26] = test system: MCF7; assay: Antiproliferative activity against human MCF7 cells incubated for 72 hrs by MTT assay; assay type: functional, cell-based; conditions: MCF7, 72 h
[27] = test system: A549; assay: Antiproliferative activity against human A549 cells incubated for 72 hrs by MTT assay; assay type: functional, cell-based; conditions: A549, 72 h
[28] = test system: CT26; assay: Antiproliferative activity against […] cells incubated for 72 hrs by MTT assay; assay type: functional, cell-based; conditions: Mus musculus, CT26, 72 h
[29] = test system: HeLa; assay: Antiproliferative activity against human HeLa cells incubated for 72 hrs by MTT assay; assay type: functional, cell-based
[30] = test system: BGC-823; assay: Antiproliferative activity against human BGC-823 cells incubated for 48 hrs by MTT assay; assay type: functional, cell-based; conditions: BGC-823, 48 h
[31] = test system: L02; assay: Cytotoxicity against human HL7702 cells incubated for 48 hrs by MTT assay; assay type: cell-based; conditions: L02, 48 h
[32] = test system: HepG2; assay: Antiproliferative activity against human HepG2 cells incubated for 48 hrs by MTT assay; assay type: functional, cell-based; conditions: HepG2, 48 h
[33] = test system: MCF7; assay: Cytotoxicity against human MCF7 cells by MTT assay; assay type: functional, cell-based
[34] = test system: K562; assay: Cytotoxicity against human K562 cells by SRB assay; assay type: functional, cell-based
[35] = test system: K562/A02; assay: Cytotoxicity against human K562/A02 cells by SRB assay; assay type: functional, cell-based
[36] = Cytotoxicity against human KBV cells by MTT assay; assay type: functional, cell-based
[37] = test system: HeLa; assay: Cytotoxicity against human HeLa cells by MTT assay; assay type: functional, cell-based
[38] = test system: KB; assay: Cytotoxicity against human KB cells by MTT assay; assay type: functional, cell-based
[39] = test system: BGC-823; assay: Antiproliferative activity against human BGC-823 cells incubated for 72 hrs by MTT assay; assay type: functional, cell-based; conditions: BGC-823, 72 h
[40] = test system: MKN-45; assay: Antiproliferative activity against human MKN-45 cells incubated for 72 hrs by MTT assay; assay type: functional, cell-based; conditions: Homo sapiens, MKN-45, 72 h
[41] = Cytotoxicity against PBMC (unknown origin) incubated for 24 hrs by CCK8 assay
[42] = test system: MCF7; assay: Antiproliferative activity against human MCF7 cells incubated for 24 hrs by MTT assay; assay type: functional, cell-based; conditions: MCF7, 24 h
[43] = test system: L02; assay: Cytotoxicity against human L02 cells incubated for 24 hrs by CCK8 assay; assay type: functional, cell-based; conditions: L02, 24 h

With `COc1cc([C@@H]2c3cc4c(cc3[C@H](OC(=O)c3ccc5[nH]ccc5c3)[C@H]3COC(=O)[C@H]23)OCO4)cc(OC)c1OC` the IC50 [1] was 81 nM and the IC50 [2] was 81 nM.
In the case of `COc1cc([C@@H]2c3cc4c(cc3[C@H](OC(=O)CCCCC3CCSC(c5ccc(C)cc5)S3)[C@H]3COC(=O)[C@H]23)OCO4)cc(OC)c1OC` (stereo partly specified), the IC50 [3] is reported as 2680 nM, the selectivity ratio [4] is reported as no less than 9.7 and the selectivity ratio [5] is reported as no less than 9.7. It also gave an IC50 [6] greater than 93800 nM, a selectivity ratio [7] of no less than 9.7 and an IC50 [8] of 2680 nM. It also gave an IC50 [9] greater than 93800 nM, a selectivity ratio [10] of no less than 9.7 and an IC50 [11] of 2680 nM. For the same compound, the selectivity ratio [12] was no less than 9.7 and the selectivity ratio [13] was no less than 9.7.
In the case of `CCCC(=O)O[C@@H]1[C@@H](OC(=O)CCC)[C@@H](O[C@@H]2c3cc4c(cc3[C@@H](c3cc(OC)c(OC)c(OC)c3)[C@H]3C(=O)OC[C@@H]32)OCO4)OC[C@H]1OC(=O)CCC`, the IC50 [14] is reported as greater than 2900 nM, the “Ratio IC50” value [15] is reported as 1.9 and the IC50 [16] is reported as greater than 2900 nM. For the same compound, the IC50 [17] was greater than 2900 nM, the IC50 [18] was greater than 2900 nM and the “Ratio IC50” value [19] was 1.9. For the same compound, the IC50 [20] was 140 nM, the “Ratio IC50” value [21] was 1.9 and the “Ratio IC50” value [22] was 1.9.
In the case of `COc1ccc(-c2coc3cc(OCCCCC(=O)O[C@@H]4c5cc6c(cc5[C@@H](c5cc(OC)c(OC)c(OC)c5)[C@H]5C(=O)OC[C@@H]54)OCO6)ccc3c2=O)cc1`, the IC50 [23] is reported as 213 nM, the IC50 [24] is reported as 213 nM and the IC50 [25] is reported as 213 nM. The IC50 [26] was 213 nM, the IC50 [27] was 213 nM and the IC50 [28] was 213 nM. The IC50 [29] was 213 nM.
Work on `COc1cc([C@@H]2c3cc4c(cc3[C@@H](Sc3nc(N)nc5nc[nH]c35)[C@H]3COC(=O)[C@H]23)OCO4)cc(OC)c1OC` yielded an IC50 [30] of 300 nM, an IC50 [31] of 300 nM and an IC50 [16] of 300 nM. It also gave an IC50 [32] of 300 nM.
`COc1cc([C@@H]2c3cc4c(cc3[C@@H](OCc3cn([C@@H]5O[C@H](COC(C)=O)[C@H](OC(C)=O)[C@H](OC(C)=O)[C@H]5OC(C)=O)nn3)[C@H]3COC(=O)[C@H]23)OCO4)cc(OC)c1OC` gave an IC50 [33] of 1250 nM.
With `COc1ccc(-c2coc3cc(OCC(=O)O[C@@H]4c5cc6c(cc5[C@@H](c5cc(OC)c(OC)c(OC)c5)[C@H]5C(=O)OC[C@@H]54)OCO6)ccc3c2=O)cc1` the IC50 [23] was 213 nM, the IC50 [24] was 213 nM and the IC50 [25] was 213 nM. For the same compound, the IC50 [26] was 213 nM, the IC50 [27] was 213 nM and the IC50 [28] was 213 nM. The IC50 [29] was 213 nM.
In the case of `COC(=O)c1cccc2c1c(C(=O)C(=O)N[C@@H]1c3cc4c(cc3[C@@H](c3cc(OC)c(OC)c(OC)c3)[C@H]3C(=O)OC[C@@H]31)OCO4)cn2C(=O)c1ccccc1`, the IC50 [34] is reported as 150 nM, the IC50 [35] is reported as 150 nM and the IC50 [36] is reported as 150 nM. The IC50 [37] was 150 nM and the IC50 [38] was 3160 nM.
In the case of `CC1=C(/C=C/C(C)=C/C=C/C(C)=C/C(O)O)C(C)(C)CCC1`, the IC50 [39] is reported as 83100 nM and the IC50 [40] is reported as 88500 nM.
Work on `COc1cc([C@@H]2c3cc4c(cc3[C@H](O)[C@H]3COC(=O)[C@H]23)OCO4)cc(OC)c1OC` [PODOFILOX] yielded an IC50 [41] of 5020 nM, an IC50 [3] of 2680 nM and an IC50 [42] of 2130 nM. The IC50 [30] was 4310 nM, the IC50 [31] was 4310 nM and the IC50 [6] was 3160 nM. For the same compound, the IC50 [16] was 4310 nM, the IC50 [32] was 4310 nM and the IC50 [8] was 2130 nM. For the same compound, the IC50 [9] was 1040 nM, the IC50 [11] was 2130 nM and the IC50 [43] was 2970 nM.
In the case of `CC[C@]1(O)C[C@H]2CN(CCc3c([nH]c4ccccc34)[C@@](C(=O)OC)(c3cc4c(cc3OC)N(C=O)[C@H]3[C@@](O)(C(=O)OC)[C@H](OC(C)=O)[C@]5(CC)C=CCN6CC[C@]43[C@@H]65)C2)C1` [VINCRISTINE], the IC50 [36] is reported as 50300 nM.
